Molecules are shown by their SMILES. pIC50: −log10 of the molar value.

Assay in all cases: Growth inhibitory activity of compounds on BaF3 cell lines stably transfected with kinase (MTS, 48 h)
Assay type in all cases: cell-based

The target in assay [1] is T1, various mutants of kinase EGFR (BaF3 cell lines stably transfected with kinase) (Homo sapiens, UniProt P00533, C797S/L858R/T790M).
T1 construct: expressed in transfected cells; host or cells: BaF3
The conditions noted are these: BaF3 cell line stably transfected with EGFR L858R/T790M/C797S, read-out: L858R/T790M/ C797S growth inhibitory activity IC50. Summed up: (§1)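 First, cells were seeded and treated with an eight-point threefold dilution series starting at 10 µM (0.1% DMSO). After 48 h at 37 °C, MTS reagent was added for 1-4 h before absorbance at 490 nm. Inhibition rates gave the IC50.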

Assay [2] concerns the target T2, various mutants of kinase EGFR (BaF3 cell lines stably transfected with kinase) (Homo sapiens, UniProt P00533, T790M/C797S, form not given).
T2 construct: other: BaF3 cells stably transfected with EGFR Δ19Del/T790M/C797S; MTS, 48; other: BaF3 cell line stably transfected with EGFR Δ19Del/T790M/C7
The conditions noted are these: BaF3 cell line stably transfected with EGFR Δ19Del/T790M/C797S, read-out: Δ19Del/T790M/ C797S growth inhibitory activity IC50. The procedure, abridged: as §1

Assay [3] addresses T3, various mutants of kinase EGFR (BaF3 cell lines stably transfected with kinase) (Homo sapiens, UniProt P00533, T790M, form not given).
T3 construct: other: BaF3 cells stably transfected with EGFR Δ19Del/T790M; MTS, 48 h; other: BaF3 cell line stably transfected with EGFR Δ19Del/T790M; MTS, 48
As to conditions: BaF3 cell line stably transfected with EGFR Δ19Del/T790M, read-out: Δ19Del/ T790M growth inhibitory activity IC50. The procedure, abridged:
as §1

The target in assay [4] is T4, various mutants of kinase EGFR (BaF3 cell lines stably transfected with kinase) (Homo sapiens, UniProt P00533, L858R/T790M).
T4 construct: expressed in transfected cells; host or cells: BaF3
T4 sequence (P00533 25-1210 T790M/L858R): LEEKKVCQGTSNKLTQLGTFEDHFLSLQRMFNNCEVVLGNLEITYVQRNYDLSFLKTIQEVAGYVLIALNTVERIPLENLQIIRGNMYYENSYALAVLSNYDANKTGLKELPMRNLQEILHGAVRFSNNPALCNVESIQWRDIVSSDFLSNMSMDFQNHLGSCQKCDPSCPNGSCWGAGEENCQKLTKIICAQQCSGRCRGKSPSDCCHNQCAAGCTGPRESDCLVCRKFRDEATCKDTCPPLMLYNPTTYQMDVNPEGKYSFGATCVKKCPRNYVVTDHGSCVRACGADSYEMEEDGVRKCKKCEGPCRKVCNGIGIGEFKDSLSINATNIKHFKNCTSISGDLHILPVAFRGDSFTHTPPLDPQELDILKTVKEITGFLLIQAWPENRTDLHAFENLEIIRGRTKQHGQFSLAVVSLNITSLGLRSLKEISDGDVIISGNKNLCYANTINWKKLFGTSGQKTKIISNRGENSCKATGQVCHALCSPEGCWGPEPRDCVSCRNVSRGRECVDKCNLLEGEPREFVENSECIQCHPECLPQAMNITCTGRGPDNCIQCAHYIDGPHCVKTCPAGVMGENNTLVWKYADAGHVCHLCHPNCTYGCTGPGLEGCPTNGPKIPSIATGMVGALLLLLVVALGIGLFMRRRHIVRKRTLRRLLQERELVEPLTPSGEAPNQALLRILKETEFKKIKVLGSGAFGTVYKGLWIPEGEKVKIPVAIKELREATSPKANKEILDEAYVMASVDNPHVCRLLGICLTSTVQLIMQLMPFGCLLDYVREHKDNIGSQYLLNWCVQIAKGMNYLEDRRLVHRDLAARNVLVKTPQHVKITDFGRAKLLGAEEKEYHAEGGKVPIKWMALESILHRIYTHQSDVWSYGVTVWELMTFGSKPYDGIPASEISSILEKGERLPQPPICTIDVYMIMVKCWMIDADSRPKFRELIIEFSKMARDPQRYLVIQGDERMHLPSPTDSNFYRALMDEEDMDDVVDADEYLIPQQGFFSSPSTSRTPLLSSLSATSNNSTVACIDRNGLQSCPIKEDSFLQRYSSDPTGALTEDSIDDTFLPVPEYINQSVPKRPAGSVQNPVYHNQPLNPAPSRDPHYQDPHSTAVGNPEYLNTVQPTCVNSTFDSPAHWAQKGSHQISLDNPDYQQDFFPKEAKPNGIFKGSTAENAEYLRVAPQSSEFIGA
As to conditions: BaF3 cell line stably transfected with EGFR L858R/T790M, read-out: L858R/ T790M growth inhibitory activity IC50. The procedure, abridged: as §1

Assay [5] concerns the target T5, various mutants of kinase EGFR (BaF3 cell lines stably transfected with kinase) (Homo sapiens, UniProt P00533, L858R).
T5 construct: expressed in transfected cells; host or cells: BaF3
As to conditions: BaF3 cell line stably transfected with EGFR L858R, read-out: L858R growth inhibitory activity IC50. The procedure, abridged:
as §1

Assay [6] concerns the target T6, various mutants of kinase EGFR (BaF3 cell lines stably transfected with kinase) (Homo sapiens, UniProt P00533).
T6 construct: other: BaF3 cells stably transfected with EGFR Δ19Del; MTS, 48 h; other: BaF3 cell line stably transfected with EGFR Δ19Del
The conditions noted are these: BaF3 cell line stably transfected with EGFR Δ19Del, read-out: Δ19Del growth inhibitory activity IC50. The procedure, abridged:
as §1

T2 sequence (P00533 with tags, fused parts or gaps DEL746-750/T790M/C797S, form open): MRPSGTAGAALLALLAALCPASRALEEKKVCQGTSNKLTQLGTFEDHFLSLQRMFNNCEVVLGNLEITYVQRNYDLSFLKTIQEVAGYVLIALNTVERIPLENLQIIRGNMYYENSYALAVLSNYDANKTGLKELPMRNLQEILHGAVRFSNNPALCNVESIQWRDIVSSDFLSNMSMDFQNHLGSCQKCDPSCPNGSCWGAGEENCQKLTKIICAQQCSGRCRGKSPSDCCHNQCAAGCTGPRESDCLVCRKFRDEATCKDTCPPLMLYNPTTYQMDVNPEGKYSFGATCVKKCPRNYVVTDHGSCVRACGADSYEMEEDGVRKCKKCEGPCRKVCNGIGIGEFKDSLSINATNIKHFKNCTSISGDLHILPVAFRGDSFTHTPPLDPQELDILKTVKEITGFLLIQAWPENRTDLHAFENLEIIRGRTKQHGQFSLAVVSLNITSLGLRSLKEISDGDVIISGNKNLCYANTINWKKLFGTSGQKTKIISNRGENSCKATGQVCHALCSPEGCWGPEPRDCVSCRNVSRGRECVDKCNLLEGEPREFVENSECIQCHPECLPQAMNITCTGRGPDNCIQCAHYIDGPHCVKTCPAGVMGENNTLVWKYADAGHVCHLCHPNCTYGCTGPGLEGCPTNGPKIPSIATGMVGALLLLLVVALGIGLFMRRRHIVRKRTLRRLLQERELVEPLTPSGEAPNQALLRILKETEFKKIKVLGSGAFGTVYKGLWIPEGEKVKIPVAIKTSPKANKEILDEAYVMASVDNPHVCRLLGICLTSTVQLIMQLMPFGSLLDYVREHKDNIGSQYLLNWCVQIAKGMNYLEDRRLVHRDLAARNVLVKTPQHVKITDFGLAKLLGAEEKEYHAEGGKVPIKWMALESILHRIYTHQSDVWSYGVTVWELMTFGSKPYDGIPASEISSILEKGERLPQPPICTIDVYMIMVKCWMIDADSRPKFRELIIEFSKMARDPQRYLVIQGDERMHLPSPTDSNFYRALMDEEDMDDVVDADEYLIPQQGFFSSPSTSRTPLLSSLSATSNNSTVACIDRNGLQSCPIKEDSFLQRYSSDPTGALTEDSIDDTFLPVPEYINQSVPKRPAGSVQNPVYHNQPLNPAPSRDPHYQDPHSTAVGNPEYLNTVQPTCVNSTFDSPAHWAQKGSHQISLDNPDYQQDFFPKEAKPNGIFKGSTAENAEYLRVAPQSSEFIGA
T6 sequence (P00533 with tags, fused parts or gaps DEL746-750): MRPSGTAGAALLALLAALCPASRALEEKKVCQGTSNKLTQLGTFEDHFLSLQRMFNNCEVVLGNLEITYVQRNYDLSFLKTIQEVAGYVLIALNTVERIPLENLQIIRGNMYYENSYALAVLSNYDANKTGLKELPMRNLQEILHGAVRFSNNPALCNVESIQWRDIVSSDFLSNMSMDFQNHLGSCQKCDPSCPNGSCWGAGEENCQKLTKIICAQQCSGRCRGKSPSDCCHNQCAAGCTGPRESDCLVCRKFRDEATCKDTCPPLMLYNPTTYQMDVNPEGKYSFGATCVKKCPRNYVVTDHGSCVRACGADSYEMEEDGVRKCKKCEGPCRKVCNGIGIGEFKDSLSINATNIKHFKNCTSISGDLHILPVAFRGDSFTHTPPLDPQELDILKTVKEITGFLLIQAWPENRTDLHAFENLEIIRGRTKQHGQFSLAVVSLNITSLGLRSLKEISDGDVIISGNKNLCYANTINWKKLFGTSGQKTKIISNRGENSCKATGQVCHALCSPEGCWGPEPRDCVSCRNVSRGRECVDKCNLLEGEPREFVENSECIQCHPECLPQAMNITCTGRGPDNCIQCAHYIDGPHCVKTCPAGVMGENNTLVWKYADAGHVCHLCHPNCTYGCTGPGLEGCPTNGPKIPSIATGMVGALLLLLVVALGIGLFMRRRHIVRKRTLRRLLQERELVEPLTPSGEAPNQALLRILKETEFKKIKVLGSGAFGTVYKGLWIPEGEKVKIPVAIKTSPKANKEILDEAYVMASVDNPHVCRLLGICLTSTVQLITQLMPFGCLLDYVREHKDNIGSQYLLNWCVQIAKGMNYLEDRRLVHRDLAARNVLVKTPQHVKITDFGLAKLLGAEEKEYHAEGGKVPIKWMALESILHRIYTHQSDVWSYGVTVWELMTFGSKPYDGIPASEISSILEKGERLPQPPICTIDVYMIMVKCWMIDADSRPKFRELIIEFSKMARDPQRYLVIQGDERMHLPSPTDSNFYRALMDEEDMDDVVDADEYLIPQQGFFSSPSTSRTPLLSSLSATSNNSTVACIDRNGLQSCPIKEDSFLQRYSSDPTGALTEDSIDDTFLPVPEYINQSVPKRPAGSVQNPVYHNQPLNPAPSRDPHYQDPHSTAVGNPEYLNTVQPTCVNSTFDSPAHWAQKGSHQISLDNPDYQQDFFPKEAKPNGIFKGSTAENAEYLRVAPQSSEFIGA
T1 sequence (P00533 25-1210 T790M/C797S/L858R): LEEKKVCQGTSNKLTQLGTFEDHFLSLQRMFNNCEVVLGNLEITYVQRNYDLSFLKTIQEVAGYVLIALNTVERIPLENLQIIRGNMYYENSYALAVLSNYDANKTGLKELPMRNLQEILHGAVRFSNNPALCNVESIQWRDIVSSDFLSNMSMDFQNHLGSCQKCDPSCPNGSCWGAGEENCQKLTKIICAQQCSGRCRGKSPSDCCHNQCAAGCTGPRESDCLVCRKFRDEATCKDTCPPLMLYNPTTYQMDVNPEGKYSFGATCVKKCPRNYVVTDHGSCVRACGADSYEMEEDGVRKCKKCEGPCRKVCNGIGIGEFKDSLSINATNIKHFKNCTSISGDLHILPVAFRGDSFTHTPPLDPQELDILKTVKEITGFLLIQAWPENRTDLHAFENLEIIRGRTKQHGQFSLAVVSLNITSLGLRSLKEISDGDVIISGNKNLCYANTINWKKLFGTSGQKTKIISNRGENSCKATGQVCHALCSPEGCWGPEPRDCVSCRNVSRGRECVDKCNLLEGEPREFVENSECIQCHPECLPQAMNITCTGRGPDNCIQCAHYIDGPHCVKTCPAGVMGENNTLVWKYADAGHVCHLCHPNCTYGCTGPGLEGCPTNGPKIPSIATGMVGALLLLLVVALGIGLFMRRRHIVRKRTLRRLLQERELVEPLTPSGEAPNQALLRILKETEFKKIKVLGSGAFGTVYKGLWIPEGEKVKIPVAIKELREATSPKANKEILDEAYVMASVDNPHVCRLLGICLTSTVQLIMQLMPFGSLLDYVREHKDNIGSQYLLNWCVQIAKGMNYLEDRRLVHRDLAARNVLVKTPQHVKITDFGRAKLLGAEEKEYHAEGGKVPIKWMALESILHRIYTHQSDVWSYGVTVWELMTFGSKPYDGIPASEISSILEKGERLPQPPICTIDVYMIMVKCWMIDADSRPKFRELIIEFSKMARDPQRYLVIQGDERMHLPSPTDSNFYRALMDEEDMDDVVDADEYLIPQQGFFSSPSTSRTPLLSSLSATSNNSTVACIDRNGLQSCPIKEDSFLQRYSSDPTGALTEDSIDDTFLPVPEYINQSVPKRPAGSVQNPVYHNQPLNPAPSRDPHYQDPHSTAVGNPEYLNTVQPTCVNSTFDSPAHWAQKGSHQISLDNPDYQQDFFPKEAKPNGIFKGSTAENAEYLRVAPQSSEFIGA

Turning to `COc1ccc(N2CCC(O)CC2)cc1Nc1ncc(Cl)c(Nc2ccc3nccnc3c2N(C)S(=O)(=O)C(F)(F)F)n1` [Compound I-370], the pIC50 in assay [1] is not below 7.30; in assay [2], not below 7.30; in assay [3] it was 5.60 to 6.30; in assay [4] it was 6.30 to 7.30; in assay [5], 6.30 to 7.30; in assay [6] it was 5.60 to 6.30.
Regarding `COc1ccc(N2CCC(O)CC2)cc1Nc1ncc(Br)c(Nc2ccc3nccnc3c2N(C)S(=O)(=O)C(F)(F)F)n1` [Compound I-371], the pIC50 is not below 7.30 in assay [1]; not below 7.30 in assay [2]; 6.30 to 7.30 in assay [3]; 6.30 to 7.30 in assay [4]; 6.30 to 7.30 in assay [5]; 5.60 to 6.30 in assay [6].
Consider `CCS(=O)(=O)N(C)c1c(Nc2nc(Nc3cc(N4CCC(O)CC4)ccc3OC)ncc2Cl)ccc2nccnc12` [Compound I-372], for which the pIC50 was not below 7.30 in assay [1]; not below 7.30 in assay [2]; 6.30 to 7.30 in assay [3]; not below 7.30 in assay [4]; not below 7.30 in assay [5]; 6.30 to 7.30 in assay [6].
Take `COc1ccc(N2CCC(O)CC2)cc1Nc1ncc(F)c(Nc2ccc3nccnc3c2N(C)S(=O)(=O)C2CC2)n1` [Compound I-373]: the pIC50 is 5.60 to 6.30 in assay [1]; 6.30 to 7.30 in assay [2]; 5.60 to 6.30 in assay [3]; 5.60 to 6.30 in assay [4]; 6.30 to 7.30 in assay [5]; 5.60 to 6.30 in assay [6].
Regarding `COc1ccc(N2CCC(O)CC2)cc1Nc1ncc(Cl)c(Nc2ccc3nccnc3c2N(C)S(=O)(=O)C2CC2)n1` [Compound I-374], the pIC50 in assay [1] was not below 7.30; in assay [2], not below 7.30; in assay [3], 6.30 to 7.30; in assay [4], 6.30 to 7.30; in assay [5] it was 6.30 to 7.30; in assay [6], 6.30 to 7.30.
`COc1ccc(N2CCC(O)CC2)cc1Nc1ncc(Br)c(Nc2ccc3nccnc3c2N(C)S(=O)(=O)C2CC2)n1` [Compound I-375]: the pIC50 in assay [1], in assay [2], in assay [3], in assay [4], in assay [5] and in assay [6] was not below 7.30 each time.
For the molecule `COc1ccc(N2CCC(O)CC2)cc1Nc1ncc(Br)c(Nc2ccc3nccnc3c2N(C)S(=O)(=O)C(C)C)n1` [Compound I-376], the pIC50 is not below 7.30 in assay [1]; not below 7.30 in assay [2]; 6.30 to 7.30 in assay [3]; not below 7.30 in assay [4]; 6.30 to 7.30 in assay [5]; 6.30 to 7.30 in assay [6].
Take `CCN(c1c(Nc2nc(Nc3cc(N4CCC(O)CC4)ccc3OC)ncc2Cl)ccc2nccnc12)S(C)(=O)=O` [Compound I-377]: the pIC50 in assay [1], in assay [2], in assay [3], in assay [4], in assay [5] and in assay [6] was not below 7.30 each time.
Regarding `CCN(c1c(Nc2nc(Nc3cc(N4CCC(O)CC4)ccc3OC)ncc2Br)ccc2nccnc12)S(C)(=O)=O` [Compound I-378], the pIC50 in assay [1] is not below 7.30; in assay [2], not below 7.30; in assay [3], not below 7.30; in assay [4], not below 7.30; in assay [5], 6.30 to 7.30; in assay [6] it was 6.30 to 7.30.
Regarding `COc1ccc(N2CCC(O)CC2)cc1Nc1ncc(Cl)c(Nc2ccc3nccnc3c2N(C2CC2)S(C)(=O)=O)n1` [Compound I-379], the pIC50 in assay [1], in assay [2], in assay [3], in assay [4], in assay [5] and in assay [6] was not below 7.30 in each case.
`COc1ccc(N2CCC(O)CC2)cc1Nc1ncc(Br)c(Nc2ccc3nccnc3c2N(C2CC2)S(C)(=O)=O)n1` [Compound I-380]: the pIC50 in assay [1], in assay [2], in assay [3], in assay [4], in assay [5] and in assay [6] was not below 7.30 each time.
Consider `CN(c1c(Nc2nc(Nc3cccc(N4CCC(N5CCCC5)CC4)c3)ncc2Br)ccc2nccnc12)S(C)(=O)=O` [Compound I-381], for which the pIC50 in assay [1] is not below 7.30; in assay [2], 6.30 to 7.30; in assay [3], not below 7.30; in assay [4], not below 7.30; in assay [5], 6.30 to 7.30; in assay [6], 6.30 to 7.30.
As for `COc1ccc(N2CCC(N3CCCC3)CC2)cc1Nc1ncc(Br)c(Nc2ccc3nccnc3c2N(C)S(C)(=O)=O)n1` [Compound I-382], the pIC50 in assay [1] is not below 7.30; in assay [2], 6.30 to 7.30; in assay [3], 6.30 to 7.30; in assay [4], not below 7.30; in assay [5], 6.30 to 7.30; in assay [6], 6.30 to 7.30.
With `CCn1ccc(Nc2ncc(Br)c(Nc3ccc4nccnc4c3N(C)S(C)(=O)=O)n2)n1` [Compound I-383], the pIC50 was not below 7.30 in assay [1]; 6.30 to 7.30 in assay [2]; 6.30 to 7.30 in assay [3]; 6.30 to 7.30 in assay [4]; 6.30 to 7.30 in assay [5]; 6.30 to 7.30 in assay [6].
As for `CC(C)n1ccc(Nc2ncc(Br)c(Nc3ccc4nccnc4c3N(C)S(C)(=O)=O)n2)n1` [Compound I-384], the pIC50 in assay [1] is 6.30 to 7.30; in assay [2], 6.30 to 7.30; in assay [3], 6.30 to 7.30; in assay [4] it was 6.30 to 7.30; in assay [5], 5.60 to 6.30; in assay [6], 5.60 to 6.30.
Consider `Cc1cc(Nc2ncc(Br)c(Nc3ccc4nccnc4c3N(C)S(C)(=O)=O)n2)nn1C` [Compound I-385], for which the pIC50 in assay [1] is not below 7.30; in assay [2], 6.30 to 7.30; in assay [3] it was 5.60 to 6.30; in assay [4], 5.60 to 6.30; in assay [5] it was 5.60 to 6.30; in assay [6], 5.60 to 6.30.
As to `CCn1cc(Nc2ncc(Br)c(Nc3ccc4nccnc4c3N(C)S(C)(=O)=O)n2)cn1` [Compound I-386], the pIC50 in assay [1] is 6.30 to 7.30; in assay [2] it was not below 7.30; in assay [3] it was 6.30 to 7.30; in assay [4], 6.30 to 7.30; in assay [5], 6.30 to 7.30; in assay [6], 6.30 to 7.30.
In the case of `CCn1cc(Nc2ncc(Br)c(Nc3ccc4nccnc4c3N(C)S(C)(=O)=O)n2)c(C)n1` [Compound I-387], the pIC50 in assay [1] was 6.30 to 7.30; in assay [2], 6.30 to 7.30; in assay [3], 5.60 to 6.30; in assay [4] it was 6.30 to 7.30; in assay [5] it was 5.60 to 6.30; in assay [6] it was 5.60 to 6.30.
For `CC(C)n1cc(Nc2ncc(Br)c(Nc3ccc4nccnc4c3N(C)S(C)(=O)=O)n2)cn1` [Compound I-388], the pIC50 was not below 7.30 in assay [1]; not below 7.30 in assay [2]; 6.30 to 7.30 in assay [3]; not below 7.30 in assay [4]; 6.30 to 7.30 in assay [5]; 6.30 to 7.30 in assay [6].
In the case of `CCc1cc(Nc2ncc(Br)c(Nc3ccc4nccnc4c3N(C)S(C)(=O)=O)n2)c(OC)cc1F` [Compound I-389], the pIC50 is 6.30 to 7.30 in assay [1]; 5.60 to 6.30 in assay [2]; 5.60 to 6.30 in assay [3]; 5.60 to 6.30 in assay [4]; 5.60 to 6.30 in assay [5]; 5.60 to 6.30 in assay [6].
Consider `CCc1cc(Nc2ncc(Br)c(Nc3ccc4nccnc4c3N(C)S(C)(=O)=O)n2)c(OC)cc1NCCO` [Compound I-390], for which the pIC50 in assay [1] was not below 7.30; in assay [2], 6.30 to 7.30; in assay [3] it was 6.30 to 7.30; in assay [4], 6.30 to 7.30; in assay [5], 6.30 to 7.30; in assay [6] it was 5.60 to 6.30.
Regarding `CCc1cc(Nc2ncc(Br)c(Nc3ccc4nccnc4c3N(C)S(C)(=O)=O)n2)c(OC)cc1NCCN(C)C` [Compound I-391], the pIC50 in assay [1] was not below 7.30; in assay [2] it was not below 7.30; in assay [3], 6.30 to 7.30; in assay [4] it was 6.30 to 7.30; in assay [5] it was 6.30 to 7.30; in assay [6], 6.30 to 7.30.
Turning to `CCc1cc(Nc2ncc(Br)c(Nc3ccc4nccnc4c3N(C)S(C)(=O)=O)n2)c(OC)cc1N(C)CCN(C)C` [Compound I-392], the pIC50 was not below 7.30 in assay [1]; not below 7.30 in assay [2]; 6.30 to 7.30 in assay [3]; 6.30 to 7.30 in assay [4]; 6.30 to 7.30 in assay [5]; 6.30 to 7.30 in assay [6].

Values taken from patent US20230310428A1, “EGFR INHIBITOR AND PREPARATION METHOD AND USE THEREOF” (HONGYUN BIOTECH CO., LTD., priority 2020, published 2023).
